Test results as given in US8945595B2, “Insect repellent and attractants” (The Regents of the University of California, priority 2009, dated 2015).
Entries after “also recorded” stand apart in the source; their conditions may differ.

Experiments:
[1] = test system: CO2-sensitive ab1C neurons; assay: single-sensillum electrophysiology, inhibition of CO2 response of ab1C neurons; type: cell-based, Drosophila; details: for inhibition of CO2 response of ab1C neurons: 0.3% CO2 with varying concentrations of odourant, applied prior to or after CO2 stimulus; for silencing of CO2 neuron beyond the period of application: 2,3-butanedione at concentrations >=10^-1, 1-hexanol at the concentrations tested; for inhibition of CO2 response across tested CO2 concentrations: CO2 0.1% up to ~3%
Description: Representative traces (top) and mean responses (bottom) from single-sensillum electrophysiology of ab1 sensilla in mutant flies; spikes represent activity of the ab1C neuron. a, 3-sec stimulus of odourant overlaid with a 1-sec application of 0.3% CO2. b, 3-sec stimulus of 0.3% CO2 overlaid with a 1-sec application of odourant. PO=paraffin oil, d4on=2,3-butanedione, 6ol=1-hexanol. n=6, error bars=s.e.m. Spikes per second were counted during the 1-sec stimulus period, and spontaneous activity subtracted. (For data in a and b, T-test, *P<0.001, **P<0.005, ***P<0.01, ****P<0.05) c, ab1C responses to indicated concentrations of CO2 in the presence of solvent (PO), 1-hexanol (6ol) or 2,3-butanedione (d4on). Odourants were tested at 10^−1 dilution. Firing rates were counted in consecutive 0.1-sec bins. n=3, error bars=s.e.m.
Bars indicate stimulus periods for 0.3% CO2, and overlays with 1-hexanol (6ol) or 2,3-butanedione (d4on) at the indicated concentrations. b, Recovery of ab1C responsiveness to a 0.5-sec, 0.3% CO2 stimulus applied every 30-sec after initial treatment with 3-sec stimulus of either d4on (10^−1) or paraffin oil (PO). n=5, error bars=s.e.m., (T-test, *P<0.005, **<0.01, ***P<0.05). c, CO2 response inhibition by structurally related compounds. A 3-sec stimulus of 0.3% CO2 was delivered in combination with 1-sec application of indicated odourant (10^−2) as in a. Percent increase or decrease in mean ab1C response was calculated relative to mean response of paraffin oil. n=5. d, Structures of CO2 and the 4 strongest antagonists. e-f, show mean odourant responses. e, Odourants were tested on ab1C neurons in Or83b2 flies at 10^−2 dilution in paraffin oil. Bars represent values after subtraction of mean response to paraffin oil. n=3. f, Odourants at indicated concentrations were tested on ab3A neuron in wild-type (wt) and ΔHalo (AH) mutants that lack Or22a and Or22b. Bars represent values after subtraction of spontaneous activity. n=5, error bars=s.e.m.
FIG. 16 is a schematic diagram of an odour-delivery system to maintain steady concentration of CO2 in binary mixture experiments. Cartridges were made from Pasteur pipettes with pre-filled cotton wool inserts. […] odorant dissolved in paraffin oil (at specific concentrations) was applied to the cotton wool, and a 1.5 ml disposable tip attached to the open end to make the “odour cartridge”. A controlled “humidified air flow” was generated from a compressed air cylinder by bubbling through water, and passed through a glass tube, and released over the recording arena holding the Drosophila. A C-55 stimulus controller (Syntech) was used to generate an additional activated-charcoal filtered continuous air flow of 5 ml/sec which was delivered into the humidified airstream through a “blank cartridge” with the tip placed through a hole in the tube. To generate controlled odourant stimulus the C-55 stimulus controller was used to switch air flow from the “continuous air flow” to “odor stimulus flow” channel. An additional CO2 stimulus was pulsed through a separate system that delivered controlled pulses (variable 2.5 ml/sec-6.5 ml/sec) into the same humidified airstream, from either a 1%, 5% or 100% cylinder of CO2 (Airgas).
Extracellular single-unit recordings were performed. Odourant stimuli were delivered via Pasteur pipette odour cartridges (see, FIG. 16). Chemicals were of the highest purity available, typically>99% (Sigma-Aldrich). All odourants were diluted in paraffin oil. A controlled volume of air 5 ml/sec was puffed through the odour cartridge containing vapours, and was delivered into a constant humidified airstream of 10 ml/sec that was passed over the fly antenna. […] CO2 stimulus was pulsed through a separate delivery system that delivered controlled pulses (variable 2.5 ml/sec-6.5 ml/sec) into the same humidified airstream, from either a 1%, 5% or 100% tank of CO2 (Airgas). […]

[2] = test system: wild-type Drosophila; assay: T-maze assay, avoidance to Drosophila stress odour (dSO); type: in vivo; details: odourant added to dSO
Protocol: T-maze behavior assay: a, Mean Preference Index (PI) of wild-type flies, given a choice between room air in 15 ml tube and either 0.1 ml of pure CO2 in a 15 ml tube (CO2), or binary mixtures of 0.1 ml pure CO2 and 1-hexanol (CO2+6ol) at 10^−1 dilution or 2,3-butanedione (CO2+d4on) at 10^−2 dilution, also in 15 ml tubes (see Methods). b, Mean PI of mutant flies given choices as in a. c, Mean PI of wild-type flies given choices between room air and odour collected from 70 untreated flies (mock), or 70 vortexed “emitter” flies of Drosophila stress odour (dSO), or mixtures of dSO with indicated odourants. n=6-9 trials (˜40 flies each), error bars=s.e.m. (T-test, *P<0.0001, **P<0.005, ***P<0.05).
T-maze behavioral testing using Drosophila stress odour, CO2, and mixtures were using techniques known in the art, with some modifications. In particular, the entire headspace from 15 ml capped “emitter” or “mock” fly tubes was withdrawn using fresh syringes and needles and infused into fresh capped 15 ml plastic tubes immediately prior to use in the T-maze. […] The avoidance response was calculated as a Preference Index (PI)=(number of flies in test arm−number of flies in control arm)/(total number of flies in assay). […] The avoidance response was calculated as a Preference Index (PI)=(number of flies in test arm−number of flies in control arm)/(total number of flies in assay). […]

CCCCCCO [1-hexanol]
effect of order of presentation on strength of CO2 response inhibition ([1]; 0.3% CO2): greater if it is presented subsequent to the CO2 stimulus
inhibition of CO2 response of ab1C neurons [1]: inhibited CO2 response in a dose-dependent manner
silencing of CO2 neuron beyond the period of application [1]: not observed
inhibition of CO2 response across tested CO2 concentrations ([1]; odourant 10^-1): significant reduction
CO2 concentration at which complete inhibition occurs ([1]; odourant 10^-1, lowest concentration tested): 0.1 % CO2
avoidance behavior to dSO (Preference Index) [2]: significantly reduced avoidance behavior

CC(=O)C(C)=O [2,3-butanedione]
effect of order of presentation on strength of CO2 response inhibition ([1]; 0.3% CO2): of lesser consequence
inhibition of CO2 response of ab1C neurons [1]: inhibited CO2 response in a dose-dependent manner
silencing of CO2 neuron beyond the period of application [1]: silenced the CO2 neuron well beyond the period of application
CO2 response at 10 minutes versus neurons not pre-exposed ([1]; after 3-second stimulus of odourant 10^-1, 0.3% CO2): significantly lower
time until responsiveness to CO2 restored to half-maximal levels ([1]; after 3-second stimulus of odourant 10^-1, 0.5-second 0.3% CO2 every 30 seconds): ~3 min
inhibition of CO2 response across tested CO2 concentrations ([1]; odourant 10^-1): complete inhibition
silencing of CO2-responsive neurons ([1]; odourant at concentrations >10^-2, 0.3% CO2): silences CO2-responsive neurons completely
avoidance behavior to dSO (Preference Index) [2]: significantly reduced avoidance behavior; also recorded: completely abolished
